Test results from PMC8508710, “Biochemical Characterization of 13-Lipoxygenases of Arabidopsis thaliana” (International Journal of Molecular Sciences, 2021).
Where “and” joins values, the source holds several entries; their conditions need not be identical. Equal entries are not always repeated.

How the values were obtained:
[1] = target: T1, LOX2 (Arabidopsis thaliana, UniProt P38418); set-up: made in house; host or cells: E. coli Nico21(DE3), pET15b; method as in PMID 18949503; conditions: cited from earlier work
T1 sequence (P38418 71-896): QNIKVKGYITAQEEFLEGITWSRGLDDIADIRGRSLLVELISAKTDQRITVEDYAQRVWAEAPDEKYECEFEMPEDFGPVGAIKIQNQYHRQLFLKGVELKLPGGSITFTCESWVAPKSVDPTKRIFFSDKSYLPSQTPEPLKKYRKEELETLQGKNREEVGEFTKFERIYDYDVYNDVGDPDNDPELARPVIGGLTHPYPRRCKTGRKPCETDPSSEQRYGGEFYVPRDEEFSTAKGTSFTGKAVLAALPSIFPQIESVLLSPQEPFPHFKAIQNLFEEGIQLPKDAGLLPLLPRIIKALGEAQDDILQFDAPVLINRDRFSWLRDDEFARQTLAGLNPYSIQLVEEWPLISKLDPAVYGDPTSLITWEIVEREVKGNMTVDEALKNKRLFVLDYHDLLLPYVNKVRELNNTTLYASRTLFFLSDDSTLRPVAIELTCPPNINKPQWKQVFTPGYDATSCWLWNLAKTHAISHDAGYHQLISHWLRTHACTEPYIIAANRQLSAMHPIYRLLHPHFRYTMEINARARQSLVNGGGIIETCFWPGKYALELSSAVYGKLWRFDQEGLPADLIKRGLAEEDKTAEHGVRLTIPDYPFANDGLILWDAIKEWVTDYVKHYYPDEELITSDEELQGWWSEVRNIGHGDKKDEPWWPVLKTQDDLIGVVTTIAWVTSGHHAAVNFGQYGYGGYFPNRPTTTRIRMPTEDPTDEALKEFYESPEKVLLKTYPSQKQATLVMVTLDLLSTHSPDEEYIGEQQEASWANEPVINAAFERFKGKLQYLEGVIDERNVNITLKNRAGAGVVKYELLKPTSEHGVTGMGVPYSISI

[2] = target: T1, LOX2; test: LOX2 activity, spectrophotometric (conjugated diene formation at 234 nm); conditions: for Relative Activity (%) LOX2: substrate specificity, 31 µM PUFA, 4 µg 13-LOX, LeA = 100%
[3] = target: T2, LOX3 (Arabidopsis thaliana, UniProt Q9LNR3); test: LOX3 activity, spectrophotometric (conjugated diene formation at 234 nm); conditions: for Relative Activity (%) LOX3: substrate specificity, 31 µM PUFA, 4 µg 13-LOX, LeA = 100%
T2 sequence (Q9LNR3 71-919): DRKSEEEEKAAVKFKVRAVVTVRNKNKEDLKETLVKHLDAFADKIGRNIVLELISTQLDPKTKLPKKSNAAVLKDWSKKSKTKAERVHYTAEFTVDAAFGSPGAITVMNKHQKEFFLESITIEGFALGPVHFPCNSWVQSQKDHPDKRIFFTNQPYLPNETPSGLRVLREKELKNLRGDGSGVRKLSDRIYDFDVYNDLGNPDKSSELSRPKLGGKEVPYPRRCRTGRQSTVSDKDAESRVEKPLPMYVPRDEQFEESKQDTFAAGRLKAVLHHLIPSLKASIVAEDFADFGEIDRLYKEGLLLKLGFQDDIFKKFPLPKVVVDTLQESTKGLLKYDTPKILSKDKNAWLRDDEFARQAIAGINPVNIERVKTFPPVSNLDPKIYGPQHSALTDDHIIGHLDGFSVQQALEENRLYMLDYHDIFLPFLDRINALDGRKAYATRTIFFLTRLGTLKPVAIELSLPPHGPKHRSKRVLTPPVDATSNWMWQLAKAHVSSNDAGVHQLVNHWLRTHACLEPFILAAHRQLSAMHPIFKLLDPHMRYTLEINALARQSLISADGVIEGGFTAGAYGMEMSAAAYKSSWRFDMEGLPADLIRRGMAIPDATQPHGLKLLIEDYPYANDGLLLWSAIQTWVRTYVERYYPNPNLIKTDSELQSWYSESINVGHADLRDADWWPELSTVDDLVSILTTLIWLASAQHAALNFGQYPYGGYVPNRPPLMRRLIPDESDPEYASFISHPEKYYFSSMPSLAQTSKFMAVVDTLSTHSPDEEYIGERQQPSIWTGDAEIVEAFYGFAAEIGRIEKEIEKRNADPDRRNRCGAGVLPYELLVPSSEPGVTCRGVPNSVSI

[4] = target: T3, LOX4 (Arabidopsis thaliana, UniProt Q9FNX8); test: LOX4 activity, spectrophotometric (conjugated diene formation at 234 nm); conditions: for Relative Activity (%) LOX4: substrate specificity, 31 µM PUFA, 4 µg 13-LOX, LeA = 100%
T3 sequence (Q9FNX8 71-926): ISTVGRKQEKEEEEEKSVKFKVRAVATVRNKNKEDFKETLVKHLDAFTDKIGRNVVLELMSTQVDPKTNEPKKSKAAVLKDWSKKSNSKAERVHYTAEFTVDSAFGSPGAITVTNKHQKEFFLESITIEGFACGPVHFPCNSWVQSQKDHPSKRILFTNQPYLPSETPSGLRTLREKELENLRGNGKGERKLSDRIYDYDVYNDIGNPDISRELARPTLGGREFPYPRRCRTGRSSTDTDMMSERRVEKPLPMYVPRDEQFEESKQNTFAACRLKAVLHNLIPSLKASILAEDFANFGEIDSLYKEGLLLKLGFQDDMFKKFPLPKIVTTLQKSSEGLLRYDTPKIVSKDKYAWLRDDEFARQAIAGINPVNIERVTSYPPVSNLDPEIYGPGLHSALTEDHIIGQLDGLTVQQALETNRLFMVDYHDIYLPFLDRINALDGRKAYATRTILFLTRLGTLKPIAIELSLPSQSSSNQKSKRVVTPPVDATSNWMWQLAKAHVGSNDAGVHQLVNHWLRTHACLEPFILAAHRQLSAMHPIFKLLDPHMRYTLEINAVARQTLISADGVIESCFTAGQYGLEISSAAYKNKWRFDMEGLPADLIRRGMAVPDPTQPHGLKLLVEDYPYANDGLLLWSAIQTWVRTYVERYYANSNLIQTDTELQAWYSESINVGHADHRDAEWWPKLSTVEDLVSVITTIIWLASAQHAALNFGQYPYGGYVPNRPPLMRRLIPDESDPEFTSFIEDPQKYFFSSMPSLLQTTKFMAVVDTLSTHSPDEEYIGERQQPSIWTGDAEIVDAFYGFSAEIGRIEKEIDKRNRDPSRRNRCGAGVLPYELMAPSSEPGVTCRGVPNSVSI

[5] = target: T4, LOX6 (Arabidopsis thaliana, UniProt Q9CAG3); test: LOX6 activity, spectrophotometric (conjugated diene formation at 234 nm); conditions: for Relative Activity (%) LOX6: substrate specificity, 31 µM PUFA, 4 µg 13-LOX, LeA = 100%
T4 sequence (Q9CAG3 41-917): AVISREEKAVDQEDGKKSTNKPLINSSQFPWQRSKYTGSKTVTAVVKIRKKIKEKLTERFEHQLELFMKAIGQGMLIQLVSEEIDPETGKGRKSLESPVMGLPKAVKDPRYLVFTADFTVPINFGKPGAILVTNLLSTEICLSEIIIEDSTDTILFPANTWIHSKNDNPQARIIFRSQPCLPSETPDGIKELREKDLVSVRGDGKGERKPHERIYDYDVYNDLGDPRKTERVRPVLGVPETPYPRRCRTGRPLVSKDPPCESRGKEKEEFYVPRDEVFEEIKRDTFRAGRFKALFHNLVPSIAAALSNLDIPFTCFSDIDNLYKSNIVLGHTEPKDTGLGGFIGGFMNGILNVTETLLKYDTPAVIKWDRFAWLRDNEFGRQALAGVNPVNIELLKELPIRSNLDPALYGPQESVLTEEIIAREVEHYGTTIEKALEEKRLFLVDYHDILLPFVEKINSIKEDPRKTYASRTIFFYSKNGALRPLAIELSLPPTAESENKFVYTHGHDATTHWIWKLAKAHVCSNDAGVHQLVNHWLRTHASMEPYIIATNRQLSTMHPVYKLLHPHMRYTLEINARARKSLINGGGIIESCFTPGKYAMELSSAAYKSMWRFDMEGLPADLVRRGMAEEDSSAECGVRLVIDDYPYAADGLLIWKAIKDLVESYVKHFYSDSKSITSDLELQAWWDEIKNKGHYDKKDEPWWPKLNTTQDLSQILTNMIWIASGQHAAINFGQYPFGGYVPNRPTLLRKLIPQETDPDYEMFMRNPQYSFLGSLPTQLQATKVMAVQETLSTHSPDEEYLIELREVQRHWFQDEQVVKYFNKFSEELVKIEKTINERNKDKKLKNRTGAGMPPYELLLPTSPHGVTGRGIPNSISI

[6] = target: T3, LOX4; test: LOX4 activity, oxygen electrode (polarography); assay type: biochemical; set-up: made in house; host or cells: E. coli Nico21(DE3), pET15b; conditions: for Protective effect on LOX4 against 12-OPDA: 1.3 mM GSH, 140 µM 12-OPDA; for Relative Activity (%) LOX4: 100 µM metal salt, LeA 30 µM in 20 mM HEPES pH 8.0, oxygen consumption vs control
[7] = target: T1, LOX2; test: LOX2 activity, oxygen electrode (polarography); assay type: biochemical; set-up: made in house; host or cells: E. coli Nico21(DE3), pET15b; conditions: 100 µM metal salt, LeA 30 µM in 20 mM HEPES pH 8.0, oxygen consumption vs control
[8] = target: T2, LOX3; test: LOX3 activity, oxygen electrode (polarography); assay type: biochemical; set-up: made in house; host or cells: E. coli Nico21(DE3), pET15b; conditions: 100 µM metal salt, LeA 30 µM in 20 mM HEPES pH 8.0, oxygen consumption vs control
[9] = target: T4, LOX6; test: LOX6 activity, oxygen electrode (polarography); assay type: biochemical; set-up: made in house; host or cells: E. coli Nico21(DE3), pEXP5-NT/TOPO; conditions: 100 µM metal salt, LeA 30 µM in 20 mM HEPES pH 8.0, oxygen consumption vs control
[10] = read-out: Km app, substrate LeA, Michaelis Menten fit, apparent
[11] = enzyme 0.225 µg/µL incubated 10 min 30 °C with 280 µM chemical, 4.8 µM LeA, 50 mM Tris-HCl pH 7.2, vs solvent control
[12] = read-out: Inhibition after pre-incubation with PUFA

CCCCC/C=C\C/C=C\C/C=C\C/C=C\CCCC(=O)O [ARA, arachidonic acid]
LOX2 activity with PUFA (relative) [1]: ~ 15%
Relative Activity (%) LOX2 ([2]; 50 mM Tris-HCl pH 7.2): 50% and 50 ± 4%
Relative Activity (%) LOX3 ([3]; 50 mM Tris-HCl pH 7.2): 5 ± 1%
Relative Activity (%) LOX4 ([4]; 50 mM Tris-HCl pH 7.2): 4 ± 1%
Relative Activity (%) LOX6 ([5]; 50 mM Tris-HCl pH 7.2): 8 ± 3%

N[C@@H](CCC(=O)N[C@@H](CS)C(=O)NCC(=O)O)C(=O)O [GSH]
Protective effect on LOX4 against 12-OPDA ([6]; 12.2 µg LOX4): ~ 7.1%
Protective effect on LOX4 against 12-OPDA ([6]; doubled LOX4 concentration): ~ 11.7%

[Cl][Cu][Cl] [CuCl2]
Relative Activity (%) LOX2 [7]: 50 ± 20%
Relative Activity (%) LOX2 ([7]; listed as Cu^2+): strongly decreased
Relative Activity (%) LOX3 [8]: no activity
Relative Activity (%) LOX3 ([8]; listed as Cu^2+): abolished
Relative Activity (%) LOX4 [6]: no activity
Relative Activity (%) LOX4 ([6]; listed as Cu^2+): abolished
Relative Activity (%) LOX6 [9]: no activity
Relative Activity (%) LOX6 ([9]; listed as Cu^2+): abolished

CC/C=C\C/C=C\C/C=C\C/C=C\C/C=C\C/C=C\CCC(=O)O [DHA, docosahexaenoic acid]
Relative Activity (%) LOX2 ([2]; 50 mM Tris-HCl pH 7.2): 56 ± 3%
Relative Activity (%) LOX3 ([3]; 50 mM Tris-HCl pH 7.2): 7 ± 1%
Relative Activity (%) LOX4 ([4]; 50 mM Tris-HCl pH 7.2): 8 ± 1%
Relative Activity (%) LOX6 ([5]; 50 mM Tris-HCl pH 7.2): 31 ± 3%

CC/C=C\C/C=C\C/C=C\CCCCCCCC(=O)O [LeA, α-linolenic acid]
Maximum activity in pH profile ([2]; LeA 9.8 µM, optimal pH 6.6): 3.9 ± 0.4 nmol·s^−1·mg^−1
Km ([2]; read-out: Km app, substrate LeA, Michaelis Menten fit, apparent (purity and iron load not considered)): 26.3 ± 2 µM
Relative Activity (%) LOX2 ([2]; 50 mM Tris-HCl pH 7.2): 100%
Maximum activity in pH profile ([3]; LeA 9.8 µM, optimal pH): 50.5±2.8 nmol·s^−1·mg^−1
Relative Activity (%) LOX3 ([3]; 50 mM Tris-HCl pH 7.2): 100%
Maximum activity in pH profile ([4]; LeA 9.8 µM, optimal pH 7.2): 62.3 ± 0.4 nmol·s^−1·mg^−1
Km [4, 10]: 5.8 µM
Vmax app ([4]; substrate LeA, Michaelis Menten fit, apparent): 128 ± 18 nmol/s/mg and 128 nmol/s/mg
Relative Activity (%) LOX4 ([4]; 50 mM Tris-HCl pH 7.2): 100%
Maximum activity in pH profile ([5]; LeA 9.8 µM, optimal pH): 1.6±0.1 nmol·s^−1·mg^−1
Km [5, 10]: 1.2 ± 0.4 µM
Relative Activity (%) LOX6 ([5]; 50 mM Tris-HCl pH 7.2): 100%

CCN1C(=O)C=CC1=O [NEM, N-ethylmaleimide]
Photometry Relative activity (%) LOX2 [2, 11]: 35 ± 10%
Photometry Relative activity (%) LOX3 [3, 11]: 29 ± 10%
Photometry Relative activity (%) LOX4 [4, 11]: 3 ± 2%
Photometry Relative activity (%) LOX6 [5, 11]: 13 ± 2%

CCCCC/C=C\C/C=C\CCCCCCCC(=O)O [LA, linoleic acid]
LOX2 activity with PUFA (relative) [1]: ~ 40%
Relative Activity (%) LOX2 ([2]; 50 mM Tris-HCl pH 7.2): 79% and 79 ± 7%
inhibition at 118 µM [3, 12]: > 50%
Relative Activity (%) LOX3 ([3]; 50 mM Tris-HCl pH 7.2): 12 ± 1%
inhibition at 118 µM [4, 12]: > 50%
Relative Activity (%) LOX4 ([4]; 50 mM Tris-HCl pH 7.2): 11 ± 1%
inhibition at 29 µM [5, 12]: > 50%
Relative Activity (%) LOX6 ([5]; 50 mM Tris-HCl pH 7.2): 17 ± 1%
